The assay deals with T1, human DHO-DH (Homo sapiens, UniProt Q02127).
T1 construct: The spleen tissue was chopped and then homogenized with a teflon glass homogenizer; from tissue; host or cells: human spleen, crude membrane preparation
Description: Dihydroorotate Dehydrogenase (DHO-DH) Assay: DCIP-linked inhibition of human spleen membrane DHO-DH. The class given is biochemical. Particulars: human spleen membranes, 90 min preincubation at 37° C., pH 8.0, 500 μM dihydroorotate, 100 μM coenzyme Q10, 200 μM DCIP, loss of absorbance at 650 nm. From the text:
Human spleen membrane DHO-DH catalyzed conversion of dihydroorotate to orotate is accompanied by reduction of coenzyme Q10. Reoxidation of coenzyme Q10 is linked to reduction of dichlorophenolindophenol and is monitored as a loss of absorbance at 650 nm. The rate of loss in absorbance is a direct measurement of the rate of the DHO-DH enzyme catalyzed reaction.
Crude membrane preparations were made using a modification of a published differential centrifugation procedure. All procedures were carried out on ice or at a temperature of 4° C. using pre-cooled buffers and equipment.
The spleen tissue was chopped and then homogenized with a teflon glass homogenizer (about 10 passes at 250 rpm) in 10 volumes of a homogenization buffer (10 mM Tris-HCl containing 0.25M sucrose, 10 μg/ml soybean trypsin inhibitor, 2 μg/ml aprotinin, pepstatin A and leupeptin pH 7.4). The homogenate was centrifuged at ^~ 470 g for 10 minutes and the supernatant was saved. Pellets were resuspended in 4-6 volumes of homogenization buffer using 5 passes of the teflon glass homogenizer (250 rpm) and centrifuged for 10 minutes at ^~ 470 g. The supernatant was combined with that from the first centrifugation step (post nuclear fraction) and the pellets containing nuclei and tissue debris were discarded. The post nuclear supernatant was centrifuged at 125,000 g for 40 minutes. The pellets were resuspended in homogenization buffer (2 ml/g wet tissue) using about 10 passes of the teflon glass homogenizer. Aliquots of the preparation were stored at -80° C.
Membranes (0.33-0.5 mg protein) were incubated with 100 μM coenzyme Q10 in 50 mM Tris-HCl, 0.1% Triton X-100, 1 mM KCN pH 8.0. Following a 90 minute preincubation at 37° C., the reaction was initiated by addition of 500 μM of dihydroorotate and the reduction of DCIP (200 μM) was monitored by loss of absorbance at 650 nm using a 96-well plate reader at 37° C. Drug concentrations increased in half log unit or full log unit intervals with each concentration tested at least in triplicate.

Here are results for four compounds from patent publication US5693844A, “2-cyano-3-hydroxy-propenamides” (Roussel UCLAF, priority 1995, dated 1997).

Where two headings read alike, the source gives them in different places.

T1 sequence (Q02127 whole entry): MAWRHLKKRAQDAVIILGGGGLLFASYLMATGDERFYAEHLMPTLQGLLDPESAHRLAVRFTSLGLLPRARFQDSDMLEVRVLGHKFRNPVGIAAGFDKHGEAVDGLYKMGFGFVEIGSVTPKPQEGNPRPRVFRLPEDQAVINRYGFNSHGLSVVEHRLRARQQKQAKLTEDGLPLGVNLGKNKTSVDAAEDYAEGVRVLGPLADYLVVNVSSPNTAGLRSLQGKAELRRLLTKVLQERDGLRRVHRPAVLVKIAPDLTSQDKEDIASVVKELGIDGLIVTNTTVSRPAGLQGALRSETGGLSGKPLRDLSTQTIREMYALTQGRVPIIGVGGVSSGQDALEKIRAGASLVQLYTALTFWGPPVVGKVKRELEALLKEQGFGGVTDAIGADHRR

With `N#Cc1ccc(NC(=O)C(C#N)C(=O)C2CC2)cc1` (stereo not shown) [A], the IC50 (read-out: IC50) fell in the range of 1950 to 2100 nM.
Turning to `C#CC(=O)C(C#N)C(=O)Nc1ccc(C(F)(F)F)cc1` (stereo not shown) [B], the IC50 (read-out: IC50) is > 100 nM.
Regarding `CC=CC(=O)C(C#N)C(=O)Nc1ccc(C(F)(F)F)cc1` (stereo not shown) [C], the half-maximal inhibitory concentration (IC50) came out at 79.4 nM.
Take `N#CC(C(=O)Nc1ccc([S+]([O-])C(F)(F)F)cc1)=C(O)C1CC1` (stereo not shown) [Example 2, N-(4'-trifluoromethylsulfinyl-phenyl)-2-cyano-3-cyclopropyl-3-hydroxy-prop-2-enamide]: the IC50 (read-out: IC50) was 300 nM.

Broadly, the IC50 is the concentration at which inhibition is half-maximal.
